Experiments:
[1] = system: HLA-A*01:01, HLA-A*02:01, HLA-A*03:01, HLA-A*24:02, HLA-B*07:02, HLA-B*08:01 and HLA-B*44:02; assay: HLA alleles the peptides bind to (Table 7); assay type: binding, human; conditions: allotype from the group HLA-A*01:01, HLA-A*02:01, HLA-A*03:01, HLA-A*24:02, HLA-B*07:02, HLA-B*08:01, HLA-B*44:02
From the text: However, due to similarities in binding pattern such as the relevant anchoring positions some peptides bind to more than one allele, such an overlap is most likely, but not limited to, HLA-A*01 binding peptides also binding to HLA-B*15, HLA-A*03 binding peptides also binding to HLA-A*11, HLA-B*07 binding peptides also binding to HLA-B*35 and HLA-B*51.

[2] = target: HLA-A*03:01 (Homo sapiens, UniProt P04439); assay: MHC binding assay, UV-ligand exchange ELISA; conditions: peptide exchange yield, binding to HLA-A*03:01
From the text: Candidate peptides for T cell based therapies according to the present invention were further tested for their MHC binding capacity (affinity). The individual peptide-MHC complexes were produced by UV-ligand exchange, where a UV-sensitive peptide is cleaved upon UV-irradiation and exchanged with the peptide of interest as analyzed. Only peptide candidates that can effectively bind and stabilize the peptide-receptive MHC molecules prevent dissociation of the MHC complexes. To determine the yield of the exchange reaction, an ELISA was performed based on the detection of the light chain (β2m) of stabilized MHC complexes. The assay was performed as generally described in Rodenko et al. (Rodenko et al., 2006).
96 well MAXISorp plates (NUNC) were coated over night with 2 μg/ml streptavidin in PBS at room temperature, washed 4× and blocked for 1 h at 37° C. in 2% BSA containing blocking buffer. Refolded HLA-A*02:01/MLA-001 monomers served as standards, covering the range of 15-500 ng/ml. Peptide-MHC monomers of the UV-exchange reaction were diluted 100-fold in blocking buffer. Samples were incubated for 1 h at 37° C., washed four times, incubated with 2 μg/ml HRP conjugated anti-82m for 1 h at 37° C., washed again and detected with TMB solution that is stopped with […]. Absorption was measured at 450 nm. Candidate peptides that show a high exchange yield (preferably higher than 50%, most preferred higher than 75%) are generally preferred for a generation and production of antibodies or fragments thereof, and/or T cell receptors or fragments thereof, as they show sufficient avidity to the MHC molecules and prevent dissociation of the MHC complexes.

Substance	Peptide exchange [2]	Binders (HLA alleles the peptides according to the invention bind to) [1]
1 (AILAPPAILK; listed as Homo sapiens) [compound 1]	++++ (≥75% = ++++)	HLA-A*03:01
2 (GTVFVLLSK; listed as Homo sapiens) [compound 2]	++ (≥20% = ++)	HLA-A*03:01
8 (VIYNQTLMK; listed as Homo sapiens) [compound 8]	++++ (≥75% = ++++)	HLA-A*03:01
61 (GLIAFAIFK; listed as Homo sapiens) [compound 61]		HLA-A*03:01
79 (SLFRLSISF; listed as Homo sapiens) [compound 79]		HLA-A*24:02
119 (VLHGLLFTL; listed as Homo sapiens) [compound 119]		HLA-A*02:01
172 (LLYKTLIIL; listed as Homo sapiens) [compound 172]		HLA-A*02:01
176 (AFLLSLISL; listed as Homo sapiens) [compound 176]		HLA-A*24:02
197 (HHTQLVFVF; listed as Homo sapiens) [compound 197]		HLA-A*24:02
211 (VVTIVMHIYK; listed as Homo sapiens) [compound 211]		HLA-A*03:01

Further lines, with some results ahead:

Peptide exchange [2]	Substance	Binders (HLA alleles the peptides according to the invention bind to) [1]
++++ (≥75% = ++++)	17 (MVNWSLTNK; listed as Homo sapiens) [compound 17]	HLA-A*03:01
++++ (≥75% = ++++)	19 (RILEVVRQPK; listed as Homo sapiens) [compound 19]	HLA-A*03:01
++++ (≥75% = ++++)	20 (ILAPPAILK; listed as Homo sapiens) [compound 20]	HLA-A*03:01
++++ (≥75% = ++++)	21 (MLSAQFILK; listed as Homo sapiens) [compound 21]	HLA-A*03:01
++++ (≥75% = ++++)	22 (RVIEVVMNSK; listed as Homo sapiens) [compound 22]	HLA-A*03:01
++++ (≥75% = ++++)	24 (LIYIPTNSIYK; listed as Homo sapiens) [compound 24]	HLA-A*03:01
++++ (≥75% = ++++)	25 (GVCSTLTIK; listed as Homo sapiens) [compound 25]	HLA-A*03:01
++++ (≥75% = ++++)	28 (ATLQAVTLYKK; listed as Homo sapiens) [compound 28]	HLA-A*03:01
++++ (≥75% = ++++)	29 (GTFIAPVMK; listed as Homo sapiens) [compound 29]	HLA-A*03:01
++++ (≥75% = ++++)	34 (LLFKGLMWK; listed as Homo sapiens) [compound 34]	HLA-A*03:01
+++ (≥50% = +++)	35 (SLATAISAK; listed as Homo sapiens) [compound 35]	HLA-A*03:01
++++ (≥75% = ++++)	37 (RLYSGSSFLY; listed as Homo sapiens) [compound 37]	HLA-A*03:01
+++ (≥50% = +++)	38 (AVVSHFILY; listed as Homo sapiens) [compound 38]	HLA-A*03:01
++++ (≥75% = ++++)	44 (SLFPYFLNK; listed as Homo sapiens) [compound 44]	HLA-A*03:01

Source: patent publication US11957716B2 (Immatics Biotechnologies GmbH, priority 2021, dated 2024)
